Measured values reported in PubChem BioAssay AID1919017 (Molecular Pharmacology Branch, DTP, NCI, 2023).
Several values for one entry are separate records, joined by “and”; a condition that tells them apart may be missing. Identical values can stand only once.

Test system: SW1271 complex spheroids with HUVEC/MSC, growth, % test/control
Experiment: Anticancer human tumor SW1271 cell line growth inhibition [AhR];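 further: spheroids exposed to agents for 7 days before readout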
Settings: for viability, T/C: stronger effect = lower value
Summary of the method: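 Spheroids combined tumor cells with HUVEC endothelial cells and human MSCs as stroma. AhR antagonists were paired with standard or investigational drugs, each dosed in half-log steps down from near clinical Cmax, or from 10 microM where Cmax was unknown.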

[1] = curve of first compound, second compound 0.1 µM
[2] = curve of first compound, second compound 0.316 µM
[3] = curve of first compound, second compound 1 µM
[4] = curve of first compound, second compound 3.16 µM
[5] = curve of first compound, second compound 10 µM
[6] = second compound 0.1 µM, first compound 0.00949 µM
[7] = second compound 0.1 µM, first compound 0.03 µM
[8] = second compound 0.1 µM, first compound 0.0949 µM
[9] = second compound 0.1 µM, first compound 0.3 µM
[10] = second compound 0.316 µM, first compound 0.00949 µM
[11] = second compound 0.316 µM, first compound 0.03 µM
[12] = second compound 0.316 µM, first compound 0.0949 µM
[13] = second compound 0.316 µM, first compound 0.3 µM
[14] = second compound 1 µM, first compound 0.00949 µM
[15] = second compound 1 µM, first compound 0.03 µM
[16] = second compound 1 µM, first compound 0.0949 µM
[17] = second compound 1 µM, first compound 0.3 µM
[18] = second compound 3.16 µM, first compound 0.00949 µM
[19] = second compound 3.16 µM, first compound 0.03 µM
[20] = second compound 3.16 µM, first compound 0.0949 µM
[21] = second compound 3.16 µM, first compound 0.3 µM
[22] = second compound 10 µM, first compound 0.00949 µM
[23] = second compound 10 µM, first compound 0.03 µM
[24] = second compound 10 µM, first compound 0.0949 µM
[25] = second compound 10 µM, first compound 0.3 µM

COc1ccc([C@@H](O)c2cc(-c3ncnc4cc(N5CCOCC5)ccc34)c(F)cc2Cl)nn1 + CC(CO)NC(=O)c1cc(-c2ccc(Cl)cc2)nn(-c2cnn(C)c2)c1=O
IC50 [1]: 2.69 µM
IC50 [2]: 1.9 µM
IC50 [3]: 1.41 µM
IC50 [4]: 1.48 µM
IC50 [5]: 0.931 µM
viability, T/C (second compound 0.1 µM, first compound 0.0316 µM): 83.9%
viability, T/C (second compound 0.1 µM, first compound 0.1 µM): 96.4%
viability, T/C (second compound 0.1 µM, first compound 0.316 µM): 90.9%
viability, T/C (second compound 0.1 µM, first compound 1 µM): 66.5%
viability, T/C (second compound 0.1 µM, first compound 3.16 µM): 49.6%
viability, T/C (second compound 0.1 µM, first compound 10 µM): 28%
viability, T/C (second compound 0.316 µM, first compound 0.0316 µM): 101%
viability, T/C (second compound 0.316 µM, first compound 0.1 µM): 91.4%
viability, T/C (second compound 0.316 µM, first compound 0.316 µM): 77.3%
viability, T/C (second compound 0.316 µM, first compound 1 µM): 58.6%
viability, T/C (second compound 0.316 µM, first compound 3.16 µM): 43.1%
viability, T/C (second compound 0.316 µM, first compound 10 µM): 33.2%
viability, T/C (second compound 1 µM, first compound 0.0316 µM): 103%
viability, T/C (second compound 1 µM, first compound 0.1 µM): 108%
viability, T/C (second compound 1 µM, first compound 0.316 µM): 78.6%
viability, T/C (second compound 1 µM, first compound 1 µM): 55.8%
viability, T/C (second compound 1 µM, first compound 3.16 µM): 40.6%
viability, T/C (second compound 1 µM, first compound 10 µM): 29.6%
viability, T/C (second compound 3.16 µM, first compound 0.0316 µM): 92.2%
viability, T/C (second compound 3.16 µM, first compound 0.1 µM): 80.4%
viability, T/C (second compound 3.16 µM, first compound 0.316 µM): 68.3%
viability, T/C (second compound 3.16 µM, first compound 1 µM): 56.3%
viability, T/C (second compound 3.16 µM, first compound 3.16 µM): 39.2%
viability, T/C (second compound 3.16 µM, first compound 10 µM): 36.5%
viability, T/C (second compound 10 µM, first compound 0.0316 µM): 84%
viability, T/C (second compound 10 µM, first compound 0.1 µM): 76.9%
viability, T/C (second compound 10 µM, first compound 0.316 µM): 59.8%
viability, T/C (second compound 10 µM, first compound 1 µM): 50.3%
viability, T/C (second compound 10 µM, first compound 3.16 µM): 38%
viability, T/C (second compound 10 µM, first compound 10 µM): 29.1%

CCN(c1cc(-c2ccc(CN3CCOCC3)cc2)cc(C(=O)NCc2c(C)cc(C)[nH]c2=O)c1C)C1CCOCC1 + Cc1cncc(-c2nc(NCCc3c[nH]c4ccccc34)c3ncn(C(C)C)c3n2)c1
IC50 [1]: > 3 µM
IC50 [2]: > 3 µM
IC50 [3]: > 3 µM
IC50 [4]: > 3 µM
IC50 [5]: < 0.00949 µM
viability, T/C [6]: 81%
viability, T/C [7]: 100%
viability, T/C [8]: 108%
viability, T/C [9]: 97.5%
viability, T/C (second compound 0.1 µM, first compound 0.949 µM): 99.7%
viability, T/C (second compound 0.1 µM, first compound 3 µM): 118%
viability, T/C [10]: 99%
viability, T/C [11]: 105%
viability, T/C [12]: 103%
viability, T/C [13]: 124%
viability, T/C (second compound 0.316 µM, first compound 0.949 µM): 106%
viability, T/C (second compound 0.316 µM, first compound 3 µM): 115%
viability, T/C [14]: 94.6%
viability, T/C [15]: 112%
viability, T/C [16]: 118%
viability, T/C [17]: 94.1%
viability, T/C (second compound 1 µM, first compound 0.949 µM): 106%
viability, T/C (second compound 1 µM, first compound 3 µM): 110%
viability, T/C [18]: 101%
viability, T/C [19]: 109%
viability, T/C [20]: 97%
viability, T/C [21]: 87.9%
viability, T/C (second compound 3.16 µM, first compound 0.949 µM): 96%
viability, T/C (second compound 3.16 µM, first compound 3 µM): 91.2%
viability, T/C [22]: 48.8%
viability, T/C [23]: 46.5%
viability, T/C [24]: 45.2%
viability, T/C [25]: 38.3%
viability, T/C (second compound 10 µM, first compound 0.949 µM): 27.5%
viability, T/C (second compound 10 µM, first compound 3 µM): 6.84%

Nc1ncn(C2CC(O)C(CO)O2)c(=O)n1 (configuration not stated)
viability, T/C (compound 0.00316 µM): 97.1% and 72.6% and 93.8%
viability, T/C (compound 0.01 µM): 107% and 124% and 97%
viability, T/C (compound 0.0316 µM): 95.4% and 81.6% and 69.9%
viability, T/C (compound 0.1 µM): 86.8% and 94.5% and 63.9%
viability, T/C (compound 0.316 µM): 93.2% and 73.9% and 68.4%
viability, T/C (compound 1 µM): 101% and 80.6% and 66.2%
IC50 (curve of compound): > 1 µM

Nc1ncn(C2CC(O)C(CO)S2)c(=O)n1 (configuration not stated) + CC(CO)NC(=O)c1cc(-c2ccc(Cl)cc2)nn(-c2cnn(C)c2)c1=O
IC50 [1]: > 0.3 µM
IC50 [2]: > 0.3 µM
IC50 [3]: > 0.3 µM
IC50 [4]: > 0.3 µM
IC50 [5]: > 0.3 µM
viability, T/C (second compound 0.1 µM, first compound 0.000949 µM): 110%
viability, T/C (second compound 0.1 µM, first compound 0.003 µM): 98.1%
viability, T/C [6]: 107%
viability, T/C [7]: 102%
viability, T/C [8]: 83.4%
viability, T/C [9]: 87.3%
viability, T/C (second compound 0.316 µM, first compound 0.000949 µM): 103%
viability, T/C (second compound 0.316 µM, first compound 0.003 µM): 87%
viability, T/C [10]: 116%
viability, T/C [11]: 113%
viability, T/C [12]: 74%
viability, T/C [13]: 68.9%
viability, T/C (second compound 1 µM, first compound 0.000949 µM): 93.4%
viability, T/C (second compound 1 µM, first compound 0.003 µM): 77.5%
viability, T/C [14]: 92%
viability, T/C [15]: 96%
viability, T/C [16]: 99.2%
viability, T/C [17]: 80.4%
viability, T/C (second compound 3.16 µM, first compound 0.000949 µM): 93%
viability, T/C (second compound 3.16 µM, first compound 0.003 µM): 76.5%
viability, T/C [18]: 83.5%
viability, T/C [19]: 82%
viability, T/C [20]: 84.8%
viability, T/C [21]: 68.1%
viability, T/C (second compound 10 µM, first compound 0.000949 µM): 87.3%
viability, T/C (second compound 10 µM, first compound 0.003 µM): 78.1%
viability, T/C [22]: 80.9%
viability, T/C [23]: 77.4%
viability, T/C [24]: 84.2%
viability, T/C [25]: 68%
